Data as given in PMC12281424, “A Rac-specific competitive inhibitor of guanine nucleotide binding reduces metastasis in triple-negative breast cancer” (Cell Reports Medicine, 2025).

Tests used:
[1] = tested on: TA1535; test: Ames fluctuation test (5th group); format: cell-based
Excerpt: Data S3. Ames-fluctuation assay-A41.
Test Concentration Count Positive Significance Fisher Exact Test

[2] = target: Calcium Channel N-Type (Rattus norvegicus, UniProt Q02294); test: Safety screen; format: binding
[3] = target: Cannabinoid CB1 (Homo sapiens, UniProt P21554); test: Safety screen; format: binding
[4] = target: GABAB1A (Homo sapiens, UniProt Q9UBS5); test: Safety screen; format: binding
Description: (§1) Blood cell counts, kinase profiler, safety screen, bacterial cytotoxicity, Ames, micronucleus assays were performed by the company Eurofins (France).

[5] = target: Leukotriene, Cysteinyl CysLT1 (Homo sapiens, UniProt Q9Y271); test: Safety screen; format: binding
Description: as §1

[6] = target: Nicotinic Acetylcholine α1, Bungarotoxin (Homo sapiens, UniProt P02708+P07510+Q07001); test: Safety screen; format: binding
[7] = target: Opiate δ1 (OP1, DOP) (Homo sapiens, UniProt P41143); test: Safety screen; format: binding
Description: as §1

[8] = target: Serotonin (5-Hydroxytryptamine) 5-HT2A (Homo sapiens, UniProt P28223); test: Safety screen; format: binding
Description: (§2) Blood cell counts, kinase profiler, safety screen, bacterial cytotoxicity, Ames, micronucleus assays were performed by the company Eurofins (France). The kinase profiler was performed by the company Eurofins (Discovery, Panlab and Cerep).

[9] = target: Abl (M351T)(h) (Homo sapiens, UniProt P00519, M351T); test: Kinase Profiler; format: biochemical
Description: (§3) The kinase profiler was performed by the company Eurofins (Discovery, Panlab and Cerep).

[10] = target: ALK2(h) (Homo sapiens, UniProt Q04771); test: Kinase Profiler; format: biochemical
Description: as §3

[11] = target: Arg(m) (Mus musculus, UniProt Q4JIM5); test: Kinase Profiler; format: biochemical
Description: as §2

[12] = target: CK1γ1(h) (Homo sapiens, UniProt Q9HCP0); test: Kinase Profiler; format: biochemical
Description: as §2

[13] = target: Flt3(D835Y)(h) (Homo sapiens, UniProt P36888, D835Y); test: Kinase Profiler; format: biochemical
Description: as §3

[14] = target: Fyn(h) (Homo sapiens, UniProt P06241); test: Kinase Profiler; format: biochemical
Description: as §3

[15] = target: Haspin(h) (Homo sapiens, UniProt Q8TF76); test: Kinase Profiler; format: biochemical
Description: as §3

[16] = target: HIPK2(h) (Homo sapiens, UniProt Q9H2X6); test: Kinase Profiler; format: biochemical
Description: as §3

[17] = target: HRI(h) (Homo sapiens, UniProt Q9BQI3); test: Kinase Profiler; format: biochemical
Description: as §3

[18] = target: IKKε(h) (Homo sapiens, UniProt Q14164); test: Kinase Profiler; format: biochemical
Description: as §2

[19] = target: LATS1(h) (Homo sapiens, UniProt O95835); test: Kinase Profiler; format: biochemical
Description: as §3

[20] = target: Lck(h) activated (Homo sapiens, UniProt P06239); test: Kinase Profiler; format: biochemical
Description: as §3

[21] = target: MEK2(h) (Homo sapiens, UniProt P36507); test: Kinase Profiler; format: biochemical
Description: as §3

[22] = target: MLK3(h) (Homo sapiens, UniProt Q16584); test: Kinase Profiler; format: biochemical
Description: as §2

[23] = target: MRCKα(h) (Homo sapiens, UniProt Q5VT25); test: Kinase Profiler; format: biochemical
Description: as §3

[24] = target: MRCKβ(h) (Homo sapiens, UniProt Q9Y5S2); test: Kinase Profiler; format: biochemical
Description: as §3

[25] = target: MSK1(h) (Homo sapiens, UniProt O75582); test: Kinase Profiler; format: biochemical
Description: as §2

[26] = target: Pim-2(h) (Homo sapiens, UniProt Q9P1W9); test: Kinase Profiler; format: biochemical
Description: as §2

[27] = target: PKD2(h) (Homo sapiens, UniProt Q9BZL6); test: Kinase Profiler; format: biochemical
Description: as §3

[28] = target: PTK5(h) (Homo sapiens, UniProt P42685); test: Kinase Profiler; format: biochemical
Description: as §3

[29] = target: Rsk1(h) (Homo sapiens, UniProt Q15418); test: Kinase Profiler; format: biochemical
Description: as §3

[30] = target: SAPK3(h) (Homo sapiens, UniProt P53778); test: Kinase Profiler; format: biochemical
Description: as §3

[31] = target: Snk(h) (Homo sapiens, UniProt Q9NYY3); test: Kinase Profiler; format: biochemical
Description: as §3

[32] = target: STK25(h) (Homo sapiens, UniProt O00506); test: Kinase Profiler; format: biochemical
Description: as §3

[33] = target: STK33(h) (Homo sapiens, UniProt Q9BYT3); test: Kinase Profiler; format: biochemical
Description: as §3

[34] = target: TAO2(h) (Homo sapiens, UniProt Q9UL54); test: Kinase Profiler; format: biochemical
Description: as §2

[35] = target: TBK1(h) (Homo sapiens, UniProt Q9UHD2); test: Kinase Profiler; format: biochemical
Description: as §2

[36] = target: Tie2(R849W)(h) (Homo sapiens, UniProt Q02763, R849W); test: Kinase Profiler; format: biochemical
Description: as §2

[37] = target: PI3K (p110a(E542K)/p85a)(m) (Mus musculus, UniProt P42337, E542K); test: Kinase Profiler; format: biochemical
Description: as §3

[38] = target: PI3K (p110a(H1047R)/p85a)(h) (Homo sapiens, UniProt P42336, H1047R); test: Kinase Profiler; format: biochemical
Description: as §3

[39] = target: PI3KC2a(h) (Homo sapiens, UniProt O00443); test: Kinase Profiler; format: biochemical
Description: as §3

Chain of LATS1(h) (O95835 whole entry): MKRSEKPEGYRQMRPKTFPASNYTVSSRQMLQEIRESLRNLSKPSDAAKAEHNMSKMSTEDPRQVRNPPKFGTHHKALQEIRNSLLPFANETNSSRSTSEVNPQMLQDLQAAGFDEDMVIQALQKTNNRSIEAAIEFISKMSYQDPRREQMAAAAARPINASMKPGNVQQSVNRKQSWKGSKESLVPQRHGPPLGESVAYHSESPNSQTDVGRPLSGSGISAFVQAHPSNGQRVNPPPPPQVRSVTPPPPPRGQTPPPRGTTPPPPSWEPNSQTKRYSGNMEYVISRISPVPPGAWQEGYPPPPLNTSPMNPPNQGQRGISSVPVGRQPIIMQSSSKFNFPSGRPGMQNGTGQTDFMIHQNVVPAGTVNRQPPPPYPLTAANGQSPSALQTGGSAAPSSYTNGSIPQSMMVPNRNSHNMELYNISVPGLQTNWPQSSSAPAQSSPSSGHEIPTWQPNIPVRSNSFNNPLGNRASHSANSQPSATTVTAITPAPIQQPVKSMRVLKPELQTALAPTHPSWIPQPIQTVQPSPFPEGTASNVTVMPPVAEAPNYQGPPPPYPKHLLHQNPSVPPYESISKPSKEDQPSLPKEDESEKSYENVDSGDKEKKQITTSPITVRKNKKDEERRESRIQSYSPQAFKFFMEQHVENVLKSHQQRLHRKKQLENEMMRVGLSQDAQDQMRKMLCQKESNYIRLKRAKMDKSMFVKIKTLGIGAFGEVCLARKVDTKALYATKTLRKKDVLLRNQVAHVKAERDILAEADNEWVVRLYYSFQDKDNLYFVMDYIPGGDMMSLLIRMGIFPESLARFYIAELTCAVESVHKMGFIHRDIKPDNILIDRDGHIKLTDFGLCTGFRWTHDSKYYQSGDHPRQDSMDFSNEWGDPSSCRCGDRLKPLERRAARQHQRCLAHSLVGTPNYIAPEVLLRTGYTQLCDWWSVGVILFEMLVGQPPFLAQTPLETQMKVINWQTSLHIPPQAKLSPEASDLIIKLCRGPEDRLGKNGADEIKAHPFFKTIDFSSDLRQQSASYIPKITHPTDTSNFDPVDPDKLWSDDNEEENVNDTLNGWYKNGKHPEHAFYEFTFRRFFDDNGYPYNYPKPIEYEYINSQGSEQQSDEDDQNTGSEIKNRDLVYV
Chain of Serotonin (5-Hydroxytryptamine) 5-HT2A (P28223 whole entry): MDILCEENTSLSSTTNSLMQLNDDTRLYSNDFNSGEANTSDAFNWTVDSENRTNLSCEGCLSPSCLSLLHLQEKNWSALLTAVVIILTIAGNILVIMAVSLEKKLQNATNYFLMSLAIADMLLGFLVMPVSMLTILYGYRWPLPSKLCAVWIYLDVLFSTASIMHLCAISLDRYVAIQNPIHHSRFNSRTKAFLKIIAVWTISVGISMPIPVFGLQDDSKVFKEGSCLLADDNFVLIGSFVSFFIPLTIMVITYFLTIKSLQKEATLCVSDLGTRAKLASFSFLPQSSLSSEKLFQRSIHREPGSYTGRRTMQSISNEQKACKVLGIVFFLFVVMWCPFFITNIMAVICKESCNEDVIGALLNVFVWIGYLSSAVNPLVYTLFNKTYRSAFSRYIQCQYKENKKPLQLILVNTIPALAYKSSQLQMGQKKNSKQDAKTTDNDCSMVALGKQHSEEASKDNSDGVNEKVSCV
Chain of ALK2(h) (Q04771 21-509): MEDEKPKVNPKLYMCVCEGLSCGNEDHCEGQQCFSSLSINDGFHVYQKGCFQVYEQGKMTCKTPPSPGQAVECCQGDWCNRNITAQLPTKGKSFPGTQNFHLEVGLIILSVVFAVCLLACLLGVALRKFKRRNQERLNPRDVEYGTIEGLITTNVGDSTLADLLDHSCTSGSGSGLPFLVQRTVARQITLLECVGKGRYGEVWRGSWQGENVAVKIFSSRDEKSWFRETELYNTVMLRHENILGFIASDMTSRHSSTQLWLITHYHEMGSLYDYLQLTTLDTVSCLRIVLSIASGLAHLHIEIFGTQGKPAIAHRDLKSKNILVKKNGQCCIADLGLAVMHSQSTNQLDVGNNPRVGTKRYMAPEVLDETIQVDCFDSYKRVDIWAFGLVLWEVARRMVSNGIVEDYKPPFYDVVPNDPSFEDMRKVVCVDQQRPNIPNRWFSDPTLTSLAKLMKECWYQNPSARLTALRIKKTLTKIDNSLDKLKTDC
Chain of Nicotinic Acetylcholine α1, Bungarotoxin (P02708 21-457): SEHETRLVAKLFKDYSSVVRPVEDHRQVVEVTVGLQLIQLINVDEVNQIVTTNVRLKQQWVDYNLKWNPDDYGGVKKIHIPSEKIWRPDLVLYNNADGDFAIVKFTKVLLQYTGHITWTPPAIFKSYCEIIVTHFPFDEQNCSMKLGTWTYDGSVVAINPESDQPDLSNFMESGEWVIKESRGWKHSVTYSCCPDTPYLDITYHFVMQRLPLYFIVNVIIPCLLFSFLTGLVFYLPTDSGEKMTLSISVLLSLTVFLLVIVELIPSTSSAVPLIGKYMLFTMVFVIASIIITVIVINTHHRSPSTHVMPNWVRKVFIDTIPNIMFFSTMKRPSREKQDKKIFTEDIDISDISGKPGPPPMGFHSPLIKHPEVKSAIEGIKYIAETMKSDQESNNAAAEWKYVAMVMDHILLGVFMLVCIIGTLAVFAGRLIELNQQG
Chain of Nicotinic Acetylcholine α1, Bungarotoxin (Q07001 22-517): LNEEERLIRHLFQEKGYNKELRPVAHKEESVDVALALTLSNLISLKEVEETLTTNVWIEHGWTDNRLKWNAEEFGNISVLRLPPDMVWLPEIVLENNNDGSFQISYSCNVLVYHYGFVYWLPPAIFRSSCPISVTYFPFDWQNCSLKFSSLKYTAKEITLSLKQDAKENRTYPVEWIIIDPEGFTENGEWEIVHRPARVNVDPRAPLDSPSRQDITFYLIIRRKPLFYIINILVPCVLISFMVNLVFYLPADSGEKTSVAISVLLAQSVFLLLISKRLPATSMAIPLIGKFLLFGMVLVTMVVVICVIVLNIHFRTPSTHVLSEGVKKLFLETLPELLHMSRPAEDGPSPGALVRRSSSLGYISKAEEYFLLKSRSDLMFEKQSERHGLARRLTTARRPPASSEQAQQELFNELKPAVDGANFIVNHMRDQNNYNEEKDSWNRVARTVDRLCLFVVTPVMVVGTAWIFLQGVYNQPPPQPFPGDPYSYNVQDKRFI
Chain of Nicotinic Acetylcholine α1, Bungarotoxin (P07510 23-517): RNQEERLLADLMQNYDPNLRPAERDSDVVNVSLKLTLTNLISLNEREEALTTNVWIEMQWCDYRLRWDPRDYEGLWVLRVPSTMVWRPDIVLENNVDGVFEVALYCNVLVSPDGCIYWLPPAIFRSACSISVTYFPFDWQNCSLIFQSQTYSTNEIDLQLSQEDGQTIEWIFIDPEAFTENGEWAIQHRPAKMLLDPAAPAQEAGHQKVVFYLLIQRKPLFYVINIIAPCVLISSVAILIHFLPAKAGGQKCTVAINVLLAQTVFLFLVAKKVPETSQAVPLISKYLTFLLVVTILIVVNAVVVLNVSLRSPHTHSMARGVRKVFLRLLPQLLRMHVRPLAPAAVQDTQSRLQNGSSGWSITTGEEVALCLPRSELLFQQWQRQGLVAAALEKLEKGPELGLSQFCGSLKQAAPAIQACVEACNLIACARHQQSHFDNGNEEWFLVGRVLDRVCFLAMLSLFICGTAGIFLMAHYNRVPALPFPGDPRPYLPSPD
Chain of Nicotinic Acetylcholine α1, Bungarotoxin (P11230 24-501, further chain): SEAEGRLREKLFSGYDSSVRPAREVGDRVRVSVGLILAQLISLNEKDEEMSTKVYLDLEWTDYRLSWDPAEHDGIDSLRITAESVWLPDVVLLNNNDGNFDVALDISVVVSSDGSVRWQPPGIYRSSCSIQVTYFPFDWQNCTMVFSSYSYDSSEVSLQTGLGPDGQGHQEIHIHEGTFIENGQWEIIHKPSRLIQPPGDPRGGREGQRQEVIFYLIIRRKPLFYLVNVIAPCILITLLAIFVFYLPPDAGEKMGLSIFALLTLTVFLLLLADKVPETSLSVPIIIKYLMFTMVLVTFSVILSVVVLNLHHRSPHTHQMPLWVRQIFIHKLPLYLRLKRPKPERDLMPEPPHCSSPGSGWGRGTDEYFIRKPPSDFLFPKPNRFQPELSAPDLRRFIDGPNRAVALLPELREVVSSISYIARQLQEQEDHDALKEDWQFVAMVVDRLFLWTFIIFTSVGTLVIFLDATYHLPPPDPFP
Chain of Lck(h) activated (P06239 whole entry): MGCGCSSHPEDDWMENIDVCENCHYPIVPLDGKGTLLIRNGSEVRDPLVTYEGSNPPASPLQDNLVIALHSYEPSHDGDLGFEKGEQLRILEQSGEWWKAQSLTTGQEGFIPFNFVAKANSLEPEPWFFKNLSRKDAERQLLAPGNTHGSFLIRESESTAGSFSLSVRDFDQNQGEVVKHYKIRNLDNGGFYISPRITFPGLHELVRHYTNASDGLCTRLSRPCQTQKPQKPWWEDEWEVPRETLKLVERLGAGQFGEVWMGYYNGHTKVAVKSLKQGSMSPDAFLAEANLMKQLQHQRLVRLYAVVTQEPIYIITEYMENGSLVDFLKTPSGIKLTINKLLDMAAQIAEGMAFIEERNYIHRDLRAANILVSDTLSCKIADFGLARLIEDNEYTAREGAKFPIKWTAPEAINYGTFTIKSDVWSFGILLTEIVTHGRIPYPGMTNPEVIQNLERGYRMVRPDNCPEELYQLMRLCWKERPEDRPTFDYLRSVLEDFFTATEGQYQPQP
Chain of STK33(h) (Q9BYT3 whole entry): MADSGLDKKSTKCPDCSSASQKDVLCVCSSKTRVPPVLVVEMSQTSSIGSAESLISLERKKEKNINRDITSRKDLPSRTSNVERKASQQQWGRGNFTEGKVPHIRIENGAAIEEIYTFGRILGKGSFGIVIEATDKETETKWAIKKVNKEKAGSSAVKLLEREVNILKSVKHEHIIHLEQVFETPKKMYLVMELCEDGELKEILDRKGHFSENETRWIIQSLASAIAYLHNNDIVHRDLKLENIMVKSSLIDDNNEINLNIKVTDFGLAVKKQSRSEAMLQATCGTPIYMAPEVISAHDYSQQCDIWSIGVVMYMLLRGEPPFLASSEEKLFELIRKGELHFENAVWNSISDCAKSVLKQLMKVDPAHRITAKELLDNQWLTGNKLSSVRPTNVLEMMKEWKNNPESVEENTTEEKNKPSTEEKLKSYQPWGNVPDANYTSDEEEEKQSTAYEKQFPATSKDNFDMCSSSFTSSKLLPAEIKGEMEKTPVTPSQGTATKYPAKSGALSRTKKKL

SMILES: COc1ccc(OC)c(NS(=O)(=O)c2ccc(NC(=O)CCSc3ccc(C)cc3)cc2)c1 [Compound A41]
- Count Positive (# of wells) ([1]; - S9, 1.0E-04 M): 0
- Count Positive (# of wells) ([1]; - S9, 1.0E-05 M): 2
- Count Positive (# of wells) ([1]; - S9, 5.0E-05 M): 0
- Count Positive (# of wells) ([1]; - S9, 5.0E-06 M): 0
- % inh. [2]: 3%
- % inh. [3]: 81%
- % inh. [4]: -6%
- % inh. [5]: 14%
- % inh. [6]: 0%
- % inh. [7]: 6%
- % inh. [8]: 84%
- Activity(%) [9]: 111%
- Activity(%) [10]: 100%
- Activity(%) [11]: 109%
- Activity(%) [12]: 106%
- Activity(%) [13]: 101%
- Activity(%) [14]: 102%
- Activity(%) [15]: 116%
- Activity(%) [16]: 81%
- Activity(%) [17]: 98%
- Activity(%) [18]: 106%
- Activity(%) [19]: 98%
- Activity(%) [20]: 90%
- Activity(%) [21]: 109%
- Activity(%) [22]: 115%
- Activity(%) [23]: 109%
- Activity(%) [24]: 102%
- Activity(%) [25]: 117%
- Activity(%) [26]: 110%
- Activity(%) [27]: 100%
- Activity(%) [28]: 113%
- Activity(%) [29]: 122%
- Activity(%) [30]: 105%
- Activity(%) [31]: 112%
- Activity(%) [32]: 98%
- Activity(%) [33]: 98%
- Activity(%) [34]: 108%
- Activity(%) [35]: 102%
- Activity(%) [36]: 101%
- Activity(%) [37]: 99%
- Activity(%) [38]: 97%
- Activity(%) [39]: 95%
